In ChEMBL document CHEMBL1201862, “PubChem BioAssay data set” (2004):
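96-well plates; 48 h exposure; 5 concentrations. Endpoints by linear interpolation between flanking doses. Not reached: highest tested concentration assigned. GI50 is the concentration that inhibits growth by half.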 Calls of active or inactive are those of the source. Rule as the data show it: active = GI50 up to about 1.1 µM and inactive = higher.

Experiments:
Test in all cases: DTP human tumour cell line panel, 48 h
[1] = system: SNB-75
[2] = system: NCI-H226
[3] = system: RPMI-8226
[4] = system: HCT-15
[5] = system: M14
[6] = system: A498
[7] = system: EKVX
[8] = system: OVCAR-8
[9] = system: OVCAR-3
[10] = system: HL-60
[11] = system: OVCAR-5
[12] = system: SK-MEL-5
[13] = system: KM12
[14] = system: HT-29
[15] = system: NCI-H23
[16] = system: SF-295
[17] = system: HCT-116

SMILES	GI50 [1]	GI50 [2]	GI50 [3]	GI50 [4]	GI50 [5]	GI50 [6]	GI50 [7]	GI50 [8]	GI50 [9]	GI50 [10]	GI50 [11]	GI50 [12]	GI50 [13]	GI50 [14]	GI50 [15]	GI50 [16]	GI50 [17]
CC(C)C1COC(c2ccc3ccccc3c2-c2c(O[Si](C)(C)C(C)(C)C)ccc3ccccc23)=N1 (stereo not given)	17.9 µM (inactive)	11.8 µM (inactive)	14.7 µM (inactive)	22.3 µM	15.8 µM (inactive)	19.2 µM (inactive)	19.1 µM (inactive)	18 µM (inactive)	17.3 µM (inactive)	16.1 µM (inactive)	18.4 µM (inactive)	16.7 µM (inactive)	17.9 µM (inactive)	15.5 µM (inactive)	16.3 µM (inactive)	17.2 µM (inactive)	–
COc1ccc2c(C(=O)O)cc3ccccc3c2c1OC	28.4 µM (inactive)	24.4 µM (inactive)	31 µM (inactive)	–	16.4 µM (inactive)	18.8 µM (inactive)	20.1 µM (inactive)	22 µM (inactive)	16.6 µM (inactive)	27.1 µM (inactive)	19.1 µM (inactive)	–	18.3 µM (inactive)	21.6 µM (inactive)	22.2 µM (inactive)	47 µM (inactive)	18.6 µM (inactive)
CCCN(CCC)c1c([N+](=O)[O-])cc(C(N)=O)cc1[N+](=O)[O-]	> 100 µM (inactive)	> 100 µM (inactive)	> 100 µM (inactive)	62.2 µM	> 100 µM (inactive)	–	36.3 µM (inactive)	92.9 µM (inactive)	78 µM (inactive)	27.8 µM (inactive)	> 100 µM (inactive)	1.16 µM (inactive)	> 100 µM (inactive)	> 100 µM (inactive)	> 100 µM (inactive)	> 100 µM (inactive)	> 100 µM (inactive)
CC(C)(C)C(=O)Nc1ccccc1Br	> 100 µM (inactive)	> 100 µM (inactive)	> 100 µM (inactive)	> 100 µM	> 100 µM (inactive)	–	> 100 µM (inactive)	> 100 µM (inactive)	> 100 µM (inactive)	> 100 µM (inactive)	> 100 µM (inactive)	> 100 µM (inactive)	> 100 µM (inactive)	> 100 µM (inactive)	–	> 100 µM (inactive)	> 100 µM (inactive)
CSc1ccc2c(cc1=O)C(NC(=O)c1ccc(OC(C)=O)cc1)CCc1cc(O)c(O)c(O)c1-2 (stereo not given)	20 µM (inactive)	20.9 µM (inactive)	–	18.8 µM	16.7 µM (inactive)	57 µM (inactive)	20.5 µM (inactive)	25.1 µM (inactive)	20.8 µM (inactive)	3.31 µM (inactive)	25.1 µM (inactive)	16 µM (inactive)	32 µM (inactive)	19.6 µM (inactive)	25.3 µM (inactive)	19.1 µM (inactive)	17.3 µM (inactive)
COc1c2c(cc3c1C(=O)Cc1ccc4c(c1CN(C)CC3)OCO4)OCO2	26.4 µM (inactive)	59.2 µM (inactive)	85.3 µM (inactive)	> 100 µM	74.3 µM (inactive)	–	> 100 µM (inactive)	> 100 µM (inactive)	> 100 µM (inactive)	30.1 µM (inactive)	29.3 µM (inactive)	40.3 µM (inactive)	> 100 µM (inactive)	29.4 µM (inactive)	> 100 µM (inactive)	> 100 µM (inactive)	52.2 µM (inactive)
C=CCN1CCC23c4c5ccc(O)c4OC2C(=NN=C2CCC4(O)C6Cc7ccc(O)c8c7C4(CCN6CC=C)C2O8)CCC3(O)C1C5 (stereo not given)	17.1 µM (inactive)	> 100 µM (inactive)	39.2 µM (inactive)	35.5 µM	17.8 µM (inactive)	20.2 µM (inactive)	28.5 µM (inactive)	25.6 µM (inactive)	18.5 µM (inactive)	> 10 µM (inactive)	66.5 µM (inactive)	20.4 µM (inactive)	21.2 µM (inactive)	18.3 µM (inactive)	> 100 µM (inactive)	20.7 µM (inactive)	–
CCOC(=O)CCn1cnc(N)n1	> 100 µM (inactive)	> 100 µM (inactive)	> 100 µM (inactive)	> 100 µM	> 100 µM (inactive)	–	> 100 µM (inactive)	> 100 µM (inactive)	> 100 µM (inactive)	> 100 µM (inactive)	> 100 µM (inactive)	> 100 µM (inactive)	> 100 µM (inactive)	> 100 µM (inactive)	> 100 µM (inactive)	> 100 µM (inactive)	> 100 µM (inactive)
CCOC(=O)C12CCCC1(O)N(NC(=O)OC)C(C)=C2C(=O)OC (stereo not given)	–	> 100 µM (inactive)	> 100 µM (inactive)	> 100 µM	> 100 µM (inactive)	> 100 µM (inactive)	> 100 µM (inactive)	> 100 µM (inactive)	> 10 µM (inactive)	> 100 µM (inactive)	> 100 µM (inactive)	–	> 10 µM (inactive)	> 100 µM (inactive)	> 100 µM (inactive)	> 10 µM (inactive)	> 100 µM (inactive)
O=[N+]([O-])C(=C(c1ccccc1)c1ccccc1)[N+](=O)[O-]	10.2 µM (inactive)	31.1 µM (inactive)	2.45 µM (inactive)	13.8 µM	11.9 µM (inactive)	14.8 µM (inactive)	> 10 µM (inactive)	9.86 µM (inactive)	20.7 µM (inactive)	3.32 µM (inactive)	19.9 µM (inactive)	–	15.5 µM (inactive)	> 10 µM (inactive)	17.4 µM (inactive)	13.5 µM (inactive)	11.9 µM (inactive)
N#CC(C#N)=c1c2nsnc2c(=C(C#N)C#N)c2nsnc12	1.51 µM (inactive)	16.7 µM (inactive)	–	–	2.07 µM (inactive)	–	4.2 µM (inactive)	1.69 µM (inactive)	3.66 µM (inactive)	2.27 µM (inactive)	1.89 µM (inactive)	–	1.85 µM (inactive)	1.59 µM (inactive)	2.01 µM (inactive)	1.89 µM (inactive)	1.98 µM (inactive)
CCCCN(CCCC)CCCn1cnc2ncccc2c1=O	> 100 µM (inactive)	> 100 µM (inactive)	–	–	> 100 µM (inactive)	–	> 100 µM (inactive)	> 100 µM (inactive)	> 100 µM (inactive)	–	> 100 µM (inactive)	72.6 µM (inactive)	> 100 µM (inactive)	> 100 µM (inactive)	> 100 µM (inactive)	> 100 µM (inactive)	> 100 µM (inactive)
Cc1cc2c(=O)c3ccc(Cl)cc3[nH]c2c(C(=O)O)c1C	> 100 µM (inactive)	> 100 µM (inactive)	> 100 µM (inactive)	> 100 µM	> 100 µM (inactive)	–	> 100 µM (inactive)	> 100 µM (inactive)	> 100 µM (inactive)	–	> 100 µM (inactive)	> 100 µM (inactive)	32.4 µM (inactive)	> 100 µM (inactive)	> 100 µM (inactive)	> 100 µM (inactive)	> 100 µM (inactive)
O=C(CCC(=O)C(C(=O)c1ccccc1)c1ccccc1)Nc1cccc(C(F)(F)F)c1 (stereo not given)	–	> 100 µM (inactive)	> 100 µM (inactive)	> 100 µM	> 100 µM (inactive)	> 100 µM (inactive)	> 100 µM (inactive)	> 100 µM (inactive)	> 100 µM (inactive)	> 100 µM (inactive)	> 100 µM (inactive)	–	> 100 µM (inactive)	> 100 µM (inactive)	> 100 µM (inactive)	> 100 µM (inactive)	> 100 µM (inactive)
COc1ccc(-c2onc(-c3ccc([N+](=O)[O-])cc3)c2C2=NCCN2)cc1	20.9 µM (inactive)	95.1 µM (inactive)	> 100 µM (inactive)	> 100 µM	> 100 µM (inactive)	–	> 100 µM (inactive)	> 100 µM (inactive)	> 100 µM (inactive)	> 100 µM (inactive)	> 100 µM (inactive)	83.6 µM (inactive)	> 100 µM (inactive)	33.3 µM (inactive)	> 100 µM (inactive)	35.2 µM (inactive)	36 µM (inactive)
Cc1nc2c(n1CCC(C)C)C(=O)c1ccccc1C2=O	20.1 µM (inactive)	45.2 µM (inactive)	–	11.9 µM	20.1 µM (inactive)	–	29.7 µM (inactive)	27.9 µM (inactive)	23.5 µM (inactive)	6 µM (inactive)	–	14.6 µM (inactive)	21.3 µM (inactive)	20.5 µM (inactive)	22.3 µM (inactive)	21.3 µM (inactive)	6.84 µM (inactive)
O=C(NCC#CCO)C(F)(F)F	–	> 100 µM (inactive)	–	> 100 µM	> 100 µM (inactive)	> 100 µM (inactive)	> 100 µM (inactive)	> 100 µM (inactive)	–	–	> 100 µM (inactive)	> 100 µM (inactive)	> 100 µM (inactive)	> 100 µM (inactive)	> 100 µM (inactive)	> 10 µM (inactive)	> 100 µM (inactive)
O=c1[nH]c2c(c3ccccc13)CCc1ccccc1-2	> 100 µM (inactive)	> 100 µM (inactive)	> 100 µM (inactive)	> 100 µM	–	–	> 100 µM (inactive)	> 100 µM (inactive)	> 100 µM (inactive)	–	> 100 µM (inactive)	> 100 µM (inactive)	> 100 µM (inactive)	> 100 µM (inactive)	> 100 µM (inactive)	> 100 µM (inactive)	> 100 µM (inactive)
